Test results as given in patent US20230012570A1, “BICYCLIC COMPOUND USED AS SELECTIVE ANDROGEN RECEPTOR MODULATOR” (MEDSHINE DISCOVERY INC., priority 2019, published 2023).

How the values were obtained:
Type in all cases: in vitro ADME
[1] = molecular target: T1, CYP1A2 (Homo sapiens, UniProt P05177); assay: Human liver microsomal CYP inhibition experiment, CYP1A2
T1 construct: Mixed human liver microsomes (HLM) were purchased from Corning Inc; tissue Corning Inc. or XenoTech, LLC. or other suppliers; host or cells: pooled human liver microsomes
T1 sequence (P05177 1-516): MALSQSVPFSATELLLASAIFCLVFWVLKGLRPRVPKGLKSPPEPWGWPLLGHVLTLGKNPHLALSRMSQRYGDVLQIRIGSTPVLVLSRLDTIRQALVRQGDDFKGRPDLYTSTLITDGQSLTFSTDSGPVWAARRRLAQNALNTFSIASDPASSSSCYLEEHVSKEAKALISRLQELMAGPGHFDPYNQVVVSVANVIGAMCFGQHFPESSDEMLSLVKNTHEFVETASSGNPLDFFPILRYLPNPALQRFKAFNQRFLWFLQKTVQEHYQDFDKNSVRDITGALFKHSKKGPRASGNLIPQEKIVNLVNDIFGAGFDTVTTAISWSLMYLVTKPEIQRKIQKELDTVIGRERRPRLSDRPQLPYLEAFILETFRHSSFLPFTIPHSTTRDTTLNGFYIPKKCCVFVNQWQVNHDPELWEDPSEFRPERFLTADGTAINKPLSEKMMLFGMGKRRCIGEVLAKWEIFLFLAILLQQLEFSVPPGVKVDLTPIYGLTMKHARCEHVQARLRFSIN
Experimental: (§1) Experiment Embodiment 4: Human Liver Microsomal CYP Inhibition Experiment
(§2) The inhibitory effects of the test compound 3A and VK5211 on the activities of human liver microsomal cytochrome P450 isozymes (CYP1A2, CYP2C9, CYP2C19, CYP2D6 and CYP3A4) were determined.
(§3) Mixed human liver microsomes (HLM) were purchased from Corning Inc. (Steuben, New York, USA) or XenoTech, LLC. (Lenexa, Kans., USA) or other suppliers, and were stored at a temperature below −60° C. before use.
(§4) First, the test compound (10.0 mM) was gradient diluted to prepare working solution (100×final concentration), and the concentrations of the working solution were: 5.00, 1.50, 0.500, 0.150, 0.0500, 0.0150, 0.00500 mM, and a working solution of each positive inhibitor of P450 isozymes (CYP1A2, CYP2C9, CYP2C19, CYP2D6, and CYP3A4) and a specific substrate mixture thereof (5 in 1) were prepared at the same time; human liver microsomes stored in a refrigerator at a temperature lower than −60° C. were put on ice to thaw, and when all the human liver microsomes were dissolved, the microsomes were diluted with potassium phosphate buffer (PB) to prepare a working solution of a certain concentration (0.253 mg/mL). […] The concentration of metabolites produced by the probe substrate in the sample was determined by liquid chromatography-tandem mass spectrometry (LC-MS/MS) method. […]

[2] = molecular target: T2, CYP2C9 (Homo sapiens, UniProt P11712); assay: Human liver microsomal CYP inhibition experiment, CYP2C9
T2 construct: Mixed human liver microsomes (HLM) were purchased from Corning Inc; tissue Corning Inc. or XenoTech, LLC. or other suppliers; host or cells: pooled human liver microsomes
Experimental: as §1, §2, §3, §4

[3] = molecular target: T3, CYP2C19 (Homo sapiens, UniProt P33261); assay: Human liver microsomal CYP inhibition experiment, CYP2C19
T3 construct: Mixed human liver microsomes (HLM) were purchased from Corning Inc; tissue Corning Inc. or XenoTech, LLC. or other suppliers; host or cells: pooled human liver microsomes
Experimental: as §1, §2, §3, §4

[4] = molecular target: T4, CYP2D6 (Homo sapiens, UniProt P10635); assay: Human liver microsomal CYP inhibition experiment, CYP2D6
T4 construct: Mixed human liver microsomes (HLM) were purchased from Corning Inc; tissue Corning Inc. or XenoTech, LLC. or other suppliers; host or cells: pooled human liver microsomes
Experimental: as §1, §2, §3, §4

[5] = molecular target: T5, CYP3A4 (Homo sapiens, UniProt P08684); assay: Human liver microsomal CYP inhibition experiment, CYP3A4
T5 construct: Mixed human liver microsomes (HLM) were purchased from Corning Inc; tissue Corning Inc. or XenoTech, LLC. or other suppliers; host or cells: pooled human liver microsomes
Experimental: as §1, §2, §3, §4

T2 sequence (P11712 whole entry): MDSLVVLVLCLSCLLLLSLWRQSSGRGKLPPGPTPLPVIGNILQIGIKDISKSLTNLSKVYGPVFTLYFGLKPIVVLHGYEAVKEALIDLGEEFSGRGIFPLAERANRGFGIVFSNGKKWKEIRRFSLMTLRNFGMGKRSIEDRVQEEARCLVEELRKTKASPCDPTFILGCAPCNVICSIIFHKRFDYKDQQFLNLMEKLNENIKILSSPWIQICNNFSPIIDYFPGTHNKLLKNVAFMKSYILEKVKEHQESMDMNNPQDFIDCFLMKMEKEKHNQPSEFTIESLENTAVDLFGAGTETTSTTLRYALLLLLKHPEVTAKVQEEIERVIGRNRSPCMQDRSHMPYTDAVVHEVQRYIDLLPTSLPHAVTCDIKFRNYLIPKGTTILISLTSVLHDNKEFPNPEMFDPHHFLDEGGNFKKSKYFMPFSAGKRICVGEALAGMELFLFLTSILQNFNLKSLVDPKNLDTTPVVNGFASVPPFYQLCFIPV
T3 sequence (P33261 whole entry): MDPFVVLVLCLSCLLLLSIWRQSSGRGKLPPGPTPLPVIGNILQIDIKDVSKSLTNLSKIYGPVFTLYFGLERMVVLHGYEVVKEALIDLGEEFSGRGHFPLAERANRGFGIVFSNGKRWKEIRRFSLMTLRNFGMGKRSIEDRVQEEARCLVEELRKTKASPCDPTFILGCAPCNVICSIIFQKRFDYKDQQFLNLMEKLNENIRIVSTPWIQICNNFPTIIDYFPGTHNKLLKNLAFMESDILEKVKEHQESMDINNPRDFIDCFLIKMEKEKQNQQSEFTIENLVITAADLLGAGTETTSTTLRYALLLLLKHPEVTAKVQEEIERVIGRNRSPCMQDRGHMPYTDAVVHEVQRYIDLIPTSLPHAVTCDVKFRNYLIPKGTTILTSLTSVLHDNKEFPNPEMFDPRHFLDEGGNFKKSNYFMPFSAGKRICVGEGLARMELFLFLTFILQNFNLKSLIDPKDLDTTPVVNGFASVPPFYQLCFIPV
T4 sequence (P10635 whole entry): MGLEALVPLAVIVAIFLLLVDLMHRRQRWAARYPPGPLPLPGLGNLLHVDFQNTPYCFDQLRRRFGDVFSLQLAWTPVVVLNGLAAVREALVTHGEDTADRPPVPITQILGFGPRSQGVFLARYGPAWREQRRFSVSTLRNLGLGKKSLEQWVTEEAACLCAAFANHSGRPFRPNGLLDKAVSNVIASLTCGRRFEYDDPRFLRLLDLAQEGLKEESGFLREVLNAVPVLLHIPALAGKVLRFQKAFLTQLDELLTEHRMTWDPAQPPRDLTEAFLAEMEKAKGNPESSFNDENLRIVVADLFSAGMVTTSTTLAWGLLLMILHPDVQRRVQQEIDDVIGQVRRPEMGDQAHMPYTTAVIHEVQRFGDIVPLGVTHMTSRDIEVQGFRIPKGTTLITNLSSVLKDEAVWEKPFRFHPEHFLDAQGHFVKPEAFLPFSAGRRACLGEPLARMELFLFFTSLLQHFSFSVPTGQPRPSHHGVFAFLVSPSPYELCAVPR
T5 sequence (P08684 whole entry): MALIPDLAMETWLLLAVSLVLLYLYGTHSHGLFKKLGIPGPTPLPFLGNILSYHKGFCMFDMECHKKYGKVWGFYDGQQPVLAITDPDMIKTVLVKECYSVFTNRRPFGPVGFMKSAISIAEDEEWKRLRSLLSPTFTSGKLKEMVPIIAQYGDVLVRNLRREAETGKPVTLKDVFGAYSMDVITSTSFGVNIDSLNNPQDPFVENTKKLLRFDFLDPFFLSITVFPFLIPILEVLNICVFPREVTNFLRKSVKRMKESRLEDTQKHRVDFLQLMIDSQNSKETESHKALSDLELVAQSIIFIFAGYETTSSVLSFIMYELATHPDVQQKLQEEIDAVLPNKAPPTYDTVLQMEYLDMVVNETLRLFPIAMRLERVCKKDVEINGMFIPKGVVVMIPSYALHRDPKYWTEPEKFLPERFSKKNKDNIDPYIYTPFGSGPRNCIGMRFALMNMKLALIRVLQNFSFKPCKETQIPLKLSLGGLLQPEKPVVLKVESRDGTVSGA

N#Cc1ccc(N2CCC[C@@H]2[C@@H](O)C(F)(F)F)cc1C(F)(F)F [VK5211, reference compound]
IC50 [1]: 4.44 µM
IC50 [2]: 5.84 µM
IC50 [3]: 4.23 µM
IC50 [4]: 7.67 µM
IC50 [5]: 44.7 µM
